± gives the uncertainty stated by the source.
Test: xn = mol fraction of the nth substance listed

Compound: OCCc1ccccc1 + Cc1ccccc1N
- viscosity (303.15 K, 100 kPa, x2 = 0.0857): 8.539 ± 0.51 mPa·s
- viscosity (303.15 K, 100 kPa, x2 = 0.1652): 8.086 ± 0.49 mPa·s
- viscosity (303.15 K, 100 kPa, x2 = 0.2724): 7.473 ± 0.45 mPa·s
- viscosity (303.15 K, 100 kPa, x2 = 0.3731): 6.895 ± 0.41 mPa·s
- viscosity (303.15 K, 100 kPa, x2 = 0.4711): 6.332 ± 0.38 mPa·s
- viscosity (303.15 K, 100 kPa, x2 = 0.6147): 5.503 ± 0.33 mPa·s
- viscosity (303.15 K, 100 kPa, x2 = 0.7123): 4.937 ± 0.3 mPa·s
- viscosity (303.15 K, 100 kPa, x2 = 0.8105): 4.366 ± 0.26 mPa·s
- viscosity (303.15 K, 100 kPa, x2 = 0.8904): 3.9 ± 0.23 mPa·s
- viscosity (308.15 K, 100 kPa, x2 = 0.0857): 7.247 ± 0.44 mPa·s
- viscosity (308.15 K, 100 kPa, x2 = 0.1652): 6.868 ± 0.41 mPa·s
- viscosity (308.15 K, 100 kPa, x2 = 0.2724): 6.356 ± 0.38 mPa·s
- viscosity (308.15 K, 100 kPa, x2 = 0.3731): 5.874 ± 0.35 mPa·s
- viscosity (308.15 K, 100 kPa, x2 = 0.4711): 5.402 ± 0.33 mPa·s
- viscosity (308.15 K, 100 kPa, x2 = 0.6147): 4.708 ± 0.28 mPa·s
- viscosity (308.15 K, 100 kPa, x2 = 0.7123): 4.234 ± 0.26 mPa·s
- viscosity (308.15 K, 100 kPa, x2 = 0.8105): 3.755 ± 0.23 mPa·s
- viscosity (308.15 K, 100 kPa, x2 = 0.8904): 3.364 ± 0.2 mPa·s
- viscosity (313.15 K, 100 kPa, x2 = 0.0857): 6.014 ± 0.36 mPa·s
- viscosity (313.15 K, 100 kPa, x2 = 0.1652): 5.714 ± 0.34 mPa·s
- viscosity (313.15 K, 100 kPa, x2 = 0.2724): 5.307 ± 0.32 mPa·s
- viscosity (313.15 K, 100 kPa, x2 = 0.3731): 4.923 ± 0.3 mPa·s
- viscosity (313.15 K, 100 kPa, x2 = 0.4711): 4.548 ± 0.27 mPa·s
- viscosity (313.15 K, 100 kPa, x2 = 0.6147): 3.994 ± 0.24 mPa·s
- viscosity (313.15 K, 100 kPa, x2 = 0.7123): 3.616 ± 0.22 mPa·s
- viscosity (313.15 K, 100 kPa, x2 = 0.8105): 3.234 ± 0.2 mPa·s
- viscosity (313.15 K, 100 kPa, x2 = 0.8904): 2.921 ± 0.18 mPa·s
- viscosity (318.15 K, 100 kPa, x2 = 0.0857): 4.751 ± 0.29 mPa·s
- viscosity (318.15 K, 100 kPa, x2 = 0.1652): 4.532 ± 0.27 mPa·s
- viscosity (318.15 K, 100 kPa, x2 = 0.2724): 4.234 ± 0.26 mPa·s
- viscosity (318.15 K, 100 kPa, x2 = 0.3731): 3.952 ± 0.24 mPa·s
- viscosity (318.15 K, 100 kPa, x2 = 0.4711): 3.676 ± 0.22 mPa·s
- viscosity (318.15 K, 100 kPa, x2 = 0.6147): 3.269 ± 0.2 mPa·s
- viscosity (318.15 K, 100 kPa, x2 = 0.7123): 2.991 ± 0.18 mPa·s
- viscosity (318.15 K, 100 kPa, x2 = 0.8105): 2.708 ± 0.16 mPa·s
- viscosity (318.15 K, 100 kPa, x2 = 0.8904): 2.476 ± 0.15 mPa·s

Compound: CCCN + CCCCCCCCCCO
- viscosity (303.15 K, 101.33 kPa, x1 = 0.0915): 7.465 ± 0.041 mPa·s
- viscosity (303.15 K, 101.33 kPa, x1 = 0.1817): 6.249 ± 0.035 mPa·s
- viscosity (303.15 K, 101.33 kPa, x1 = 0.283): 5.036 ± 0.03 mPa·s
- viscosity (303.15 K, 101.33 kPa, x1 = 0.3906): 3.906 ± 0.023 mPa·s
- viscosity (303.15 K, 101.33 kPa, x1 = 0.4858): 3.037 ± 0.018 mPa·s
- viscosity (303.15 K, 101.33 kPa, x1 = 0.59): 2.211 ± 0.013 mPa·s
- viscosity (303.15 K, 101.33 kPa, x1 = 0.718): 1.384 ± 0.0086 mPa·s
- viscosity (303.15 K, 101.33 kPa, x1 = 0.8181): 0.8865 ± 0.0057 mPa·s
- viscosity (303.15 K, 101.33 kPa, x1 = 0.9058): 0.5706 ± 0.0041 mPa·s
- viscosity (313.15 K, 101.33 kPa, x1 = 0.0915): 5.86 ± 0.034 mPa·s
- viscosity (313.15 K, 101.33 kPa, x1 = 0.1817): 4.82 ± 0.029 mPa·s
- viscosity (313.15 K, 101.33 kPa, x1 = 0.283): 3.89 ± 0.023 mPa·s
- viscosity (313.15 K, 101.33 kPa, x1 = 0.3906): 2.973 ± 0.018 mPa·s
- viscosity (313.15 K, 101.33 kPa, x1 = 0.4858): 2.284 ± 0.014 mPa·s
- viscosity (313.15 K, 101.33 kPa, x1 = 0.59): 1.654 ± 0.01 mPa·s
- viscosity (313.15 K, 101.33 kPa, x1 = 0.718): 1.051 ± 0.0067 mPa·s
- viscosity (313.15 K, 101.33 kPa, x1 = 0.8181): 0.7052 ± 0.0047 mPa·s
- viscosity (313.15 K, 101.33 kPa, x1 = 0.9058): 0.481 ± 0.0037 mPa·s

From the CheMixHub viscosity set
